PubChem BioAssay (NCI)
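Five concentrations, 48 hours, 96-well plates. GI50 = concentration required for 50% inhibition of growth. Definition used: TGI = concentration required for complete inhibition of growth.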 Where a SMILES comes first, the peptide text is derived from it. [ ]: non-standard residue; d: D form. The star is where a group is joined. AllylGly = C=CC[CH](N)C(=O)O; Boc = CC(C)(C)OC(=O)*; OtBu = CC(C)(C)O*

Key:
Test in all cases: inhibition of tumour cell growth, NCI panel, 48 h
SNB-75 CNS = system: SNB-75 CNS
NCI-H23 lung = system: NCI-H23 lung
UACC-257 melanoma = system: UACC-257 melanoma
COLO 205 colon = system: COLO 205 colon
CCRF-CEM leukemia = system: CCRF-CEM leukemia
MDA-MB-231 breast = system: MDA-MB-231 breast
HCC-2998 colon = system: HCC-2998 colon
HOP-92 NSCLC = system: HOP-92 NSCLC
IGROV1 ovarian = system: IGROV1 ovarian
SF-539 CNS = system: SF-539 CNS

Row | SMILES | TGI (SNB-75 CNS) [µM] | TGI (NCI-H23 lung) [µM] | TGI (UACC-257 melanoma) [µM] | TGI (COLO 205 colon) [µM] | TGI (CCRF-CEM leukemia) [µM] | TGI (MDA-MB-231 breast) [µM] | TGI (HCC-2998 colon) [µM] | TGI (HOP-92 NSCLC) [µM] | TGI (IGROV1 ovarian) [µM] | TGI (SF-539 CNS) [µM] | GI50 (SNB-75 CNS) [µM] | GI50 (NCI-H23 lung) [µM] | GI50 (UACC-257 melanoma) [µM] | GI50 (COLO 205 colon) [µM] | GI50 (CCRF-CEM leukemia) [µM] | GI50 (MDA-MB-231 breast) [µM] | GI50 (HCC-2998 colon) [µM] | GI50 (HOP-92 NSCLC) [µM] | GI50 (SF-539 CNS) [µM]
1 | CC(C)(C)N(Cc1ccc2c(c1)OCO2)C(=O)/C=C\S(=O)c1ccccc1 (configuration not stated) | 15.1 | 8.79 | 12.5 | 8.75 | > 100 | 9.75 | 13.8 | 8.18 | 13.3 | 6.6 | – | – | – | – | – | – | – | – | –
2 | COCC1OC(OC2C3=C(C(C)C)CCC3(C)/C=C3\C(CCC3(O)COC)C(C)C2O)C(O)C2OC3OC12OC3(C)C1CO1 (configuration not stated) | 92.7 | > 100 | > 100 | > 100 | 59.6 | > 100 | > 100 | > 100 | > 100 | > 100 | – | – | – | – | – | – | – | – | –
3 | CCOC(=O)CCC(NC(=O)c1ccc(Oc2nc3ccc(C(F)(F)F)cc3nc2-c2ccccc2)cc1)C(=O)OCC (configuration not stated) | 29.1 | > 79.2 | > 100 | > 100 | > 100 | > 61.1 | > 100 | 98.4 | > 100 | > 34.3 | – | – | – | – | – | – | – | – | –
4 | N#Cc1c(-c2ccc([N+](=O)[O-])cc2)cc(-c2ccc(Nc3ccnc4cc(C(F)(F)F)ccc34)cc2)nc1N | 49.8 | > 62.3 | > 85.2 | > 75.9 | > 29.7 | 41.7 | > 55.4 | 42 | 29 | > 63.8 | – | – | – | – | – | – | – | – | –
5 | Cc1ccc(-c2c(C#N)c(S)n(NS(=O)(=O)c3ccc(C)cc3)c(=O)c2C#N)cc1 | 37.4 | 52.3 | > 100 | > 100 | > 100 | > 100 | 46.9 | > 100 | 51.1 | 43.2 | – | – | – | – | – | – | – | – | –
6 | COc1ccc(N=C(C)c2ccncc2)cc1 | > 100 | > 100 | > 100 | > 100 | > 100 | > 100 | > 100 | > 100 | > 100 | 61.4 | – | – | – | – | – | – | – | – | –
7 | O=c1cc(N2CCOCC2)[nH]c(=O)n1-c1cccc(C(F)(F)F)c1 | > 100 | > 100 | > 100 | > 100 | > 100 | 57 | > 100 | > 100 | > 100 | > 100 | – | – | – | – | – | – | – | – | –
8 | C=CCC(NC(=O)C(CC(=O)OC(C)(C)C)NC(=O)OC(C)(C)C)C(=O)OC (configuration not stated) (Boc-Asp(OtBu)-[AllylGly]-OMe; configuration not given here) | > 100 | > 100 | 58.1 | 51.8 | > 100 | > 100 | 61.3 | > 100 | > 100 | > 100 | – | – | – | – | – | – | – | – | –
9 | N#CCCN(CCC#N)c1ccc(C(N=Nc2ccccc2)=Nc2ccccc2)cc1 | > 100 | > 100 | > 100 | > 100 | > 100 | > 100 | > 100 | > 100 | > 100 | > 100 | – | – | – | – | – | – | – | – | –
10 | COc1ccc2nc3ccc(OC)cc3c(S(=O)(=O)Cc3ccc([N+](=O)[O-])cc3)c2c1 | > 100 | > 100 | > 100 | > 100 | > 100 | > 100 | > 100 | > 100 | > 100 | > 100 | – | – | – | – | – | – | – | – | –
11 | O=c1[nH]c(Nc2cccc(C(F)(F)F)c2)nc2nc[nH]c12 | > 100 | – | > 100 | > 100 | > 100 | > 100 | > 100 | > 100 | > 100 | > 100 | – | – | – | – | – | – | – | – | –
12 | C[C@H](Nc1c(O)c2c(c(O)c1Cl)C(=O)C=CC2=O)C(=O)Nc1ccc([N+](=O)[O-])cc1 | > 10 | 4.45 | 3.41 | 2.97 | > 10 | 4.22 | 8.05 | 5.16 | 4.22 | 4.2 | – | – | – | – | – | – | – | – | –
13 | OC12COc3ccccc3C1Oc1ccccc1C2 (configuration not stated) | > 100 | > 100 | > 100 | > 100 | > 100 | > 100 | > 100 | > 100 | > 100 | > 100 | – | – | – | – | – | – | – | – | –
14 | COCC1CCCN1c1ccc(/C=C(/C#N)C(N)=S)cc1 (configuration not stated) | > 100 | > 100 | > 100 | > 100 | 20.6 | 55.8 | > 100 | 89.2 | – | > 100 | 90.7 | > 100 | > 100 | > 100 | 5.04 | 9.89 | > 100 | 8.32 | > 100
15 | CC(=O)C(=[N+]=[N-])C(=O)OC(C)(C)C#N | 8.12 | > 10 | > 10 | > 10 | > 10 | > 10 | > 10 | > 10 | > 10 | > 10 | – | – | – | – | – | – | – | – | –
16 | CN(NC(=O)CCCl)C1=NCCN1 | > 100 | > 100 | > 100 | > 100 | > 100 | > 100 | > 100 | > 100 | > 100 | > 100 | – | – | – | – | – | – | – | – | –
